Source: patent US20240228504A1, “SUBSTITUTED TRICYCLIC AMIDES, ANALOGUES THEREOF, AND METHODS USING SAME” (Arbutus Biopharma Corporation, priority 2020, published 2024)

System: HBV rcDNA in HepDE19 cells
Test: HepDE19 assay with bDNA quantitation of HBV rcDNA
Format: cell-based, hepatitis B virus
Conditions: HepDE19 assay, inhibition of rcDNA formation, bDNA quantitation; read-out: DE-19bDNA EC50

First: CCc1cc(F)cc2[nH]c(C(=O)N(C)C3COCc4[nH]c(=O)c5cc(F)ccc5c43)cc12 (single isomer, unassigned) [Compound 393, 4-Ethyl-6-fluoro-N-(8-fluoro-6-oxo-1,4,5,6-tetrahydro-2H-pyrano[3,4-c]isoquinolin-1-yl)-N-methyl-1H-indole-2-carboxamide]
Second: CN(C(=O)c1cc2cc(F)c(F)cc2[nH]1)C1COCc2[nH]c(=O)c3cc(F)ccc3c21 (single isomer, unassigned) [Compound 49, 5,6-Difluoro-N-(8-fluoro-6-oxo-1,4,5,6-tetrahydro-2H-pyrano[3,4-c]isoquinolin-1-yl)-N-methyl-1H-indole-2-carboxamide]
The EC50 of the first is 1.8-fold lower: 1200 nM for the first, 2100 nM for the second. The first is the more potent here.

Going from `CN(C(=O)c1cc2cccc(F)c2[nH]1)C1COCc2[nH]c(=O)c3cc(F)ccc3c21` (single isomer, unassigned) [Compound 34, 7-Fluoro-N-(8-fluoro-6-oxo-1,4,5,6-tetrahydro-2H-pyrano[3,4-c]isoquinolin-1-yl)-N-methyl-1H-indole-2-carboxamide] to `CN(C(=O)c1cc(F)c(C(F)F)c(F)c1)C1CNCc2[nH]c(=O)c3cc(F)ccc3c21` (single isomer, unassigned) [Compound 186, 4-(Difluoromethyl)-3,5-difluoro-N-(8-fluoro-6-oxo-1,2,3,4,5,6-hexahydrobenzo[c][1,7]naphthyridin-1-yl)-N-methylbenzamide], the EC50 rises from 30 nM to 200 nM (6.7-fold).

First: CN(C(=O)c1cc2cc(F)c(F)cc2[nH]1)C1COCc2nc(NCCO)c3cc(F)c(F)cc3c21 (single isomer, unassigned) [Compound 336, N-(8,9-Difluoro-6-((2-hydroxyethyl)amino)-1,4-dihydro-2H-pyrano[3,4-c]isoquinolin-1-yl)-5,6-difluoro-N-methyl-1H-indole-2-carboxamide]
Second: CN(C(=O)C1Cc2c(F)cc(F)cc2N1)C1COCc2[nH]c(=O)c3cc(F)c(F)cc3c21 (stereo not drawn) [Compound 13, N-(8,9-Difluoro-6-oxo-1,4,5,6-tetrahydro-2H-pyrano[3,4-c]isoquinolin-1-yl)-4,6-difluoro-N-methylindoline-2-carboxamide]
The EC50 of the first is 1200-fold lower: 10 nM for the first, 12000 nM for the second.

First: CN(C(=O)c1cc2sc(F)cc2[nH]1)C1CNCc2[nH]c(=O)c3cc(F)c(F)cc3c21 (single isomer, unassigned) [Compound 499, N-(8,9-difluoro-6-oxo-1,2,3,4,5,6-hexahydrobenzo[c][1,7]naphthyridin-1-y1)-2-fluoro-N-methyl-4H-thieno[3,2-b]pyrrole-5-carboxamide]
Second: CN(C(=O)c1cc2sccc2[nH]1)C1CNCc2[nH]c(=O)c3cc(F)c(F)cc3c21 (single isomer, unassigned) [Compound 421, N-(8,9-Difluoro-6-oxo-1,2,3,4,5,6-hexahydrobenzo[c][1,7]naphthyridin-1-yl)-N-methyl-4H-thieno[3,2-b]pyrrole-5-carboxamide]
The EC50 of the first is 500-fold higher: 20000 nM for the first, 40 nM for the second. The second is the more potent here.

Going from `CN(C(=O)c1cc2c(F)cccn2c1)C1CNCc2[nH]c(=O)c3cc(F)c(F)cc3c21` (single isomer, unassigned) [Compound 161, N-(8,9-Difluoro-6-oxo-1,2,3,4,5,6-hexahydrobenzo[c][1,7]naphthyridin-1-yl)-8-fluoro-N-methylindolizine-2-carboxamide] to `CN(C(=O)c1cc2c(C(F)F)cccn2c1)C1CNCc2[nH]c(=O)c3cc(F)c(F)cc3c21` (single isomer, unassigned) [Compound 430, N-(8,9-Difluoro-6-oxo-1,2,3,4,5,6-hexahydrobenzo[c][1,7]naphthyridin-1-yl)-8-(difluoromethyl)-N-methylindolizine-2-carboxamide], the EC50 rises from 20 nM to 6300 nM (320-fold). The first is the more potent here.

Compared with `CN(C(=O)c1ccc2cn[nH]c2c1)C1CNCc2[nH]c(=O)c3cc(F)c(F)cc3c21` (single isomer, unassigned) [Compound 495, N-(8,9-difluoro-6-oxo-1,2,3,4,5,6-hexahydrobenzo[c][1,7]naphthyridin-1-yl)-N-methyl-1H-indazole-6-carboxamide], `CN(C(=O)c1cc2c(F)cccn2c1)C1CS(=O)(=O)Cc2[nH]c(=O)c3cc(F)c(F)cc3c21` (single isomer, unassigned) [Compound 151, N-(8,9-Difluoro-3,3-dioxido-6-oxo-2,4,5,6-tetrahydro-1H-thiopyrano[3,4-c]isoquinolin-1-yl)-8-fluoro-N-methylindolizine-2-carboxamide] is lower in EC50: over 25000 nM for the first, 3610 nM for the second. The second is the more potent here.

Same assay, conditions: Hepatitis B virus, HepDE19, HepDE19 assay, inhibition of rcDNA formation, bDNA quantitation; read-out: DE-19bDNA EC50

First: CN(C(=O)c1ccc(-c2cccc(F)c2)cc1)[C@@H]1COCc2[nH]c(=O)c3cc(F)c(F)cc3c21 [Compound 283, (S)-N-(8,9-Difluoro-6-oxo-1,4,5,6-tetrahydro-2H-pyrano[3,4-c]isoquinolin-1-yl)-3′-fluoro-N-methyl-[1,1′-biphenyl]-4-carboxamide]
Second: Cc1ccc(C(=O)N(C)[C@@H]2COCc3[nH]c(=O)c4cc(F)c(F)cc4c32)cc1F [Compound 137, (S)-N-(8,9-Difluoro-6-oxo-1,4,5,6-tetrahydro-2H-pyrano[3,4-c]isoquinolin-1-yl)-3-fluoro-N,4-dimethylbenzamide]
The EC50 of the first is 78-fold higher: 4700 nM for the first, 60 nM for the second. The second is the more potent here.

Compared with `CN(C(=O)c1cc(F)c(C(F)F)c(F)c1)[C@@H]1COCc2[nH]c(=O)c3cc(F)c(F)cc3c21` [Compound 180, (S)-N-(8,9-Difluoro-6-oxo-1,4,5,6-tetrahydro-2H-pyrano[3,4-c]isoquinolin-1-yl)-4-(difluoromethyl)-3,5-difluoro-N-methylbenzamide], `CN(C(=O)C1(O)Cc2cc(F)c(F)cc2C1)[C@@H]1COCc2[nH]c(=O)c3cc(F)c(F)cc3c21` [Compound 276, (S)-N-(8,9-Difluoro-6-oxo-1,4,5,6-tetrahydro-2H-pyrano[3,4-c]isoquinolin-1-yl)-5,6-difluoro-2-hydroxy-N-methyl-2,3-dihydro-1H-indene-2-carboxamide] is 12-fold higher in EC50: 160 nM for the first, 1950 nM for the second. The first is the more potent here.

`O=C(N[C@@H]1COCc2[nH]c(=O)c3cc(F)c(F)cc3c21)c1cc2cc(F)c(F)cc2[nH]1` [Compound 156, (S)-N-(8,9-Difluoro-6-oxo-1,4,5,6-tetrahydro-2H-pyrano[3,4-c]isoquinolin-1-yl)-5,6-difluoro-1H-indole-2-carboxamide] and `CN(C(=O)c1cc2cc(F)c(F)cc2[nH]1)[C@@H]1COCc2c1c1cc(F)c(F)cc1c(=O)n2CCN` [Compound 316] are within 1.5-fold of each other in EC50: 490 nM for the first, 390 nM for the second.

Going from `CN(C(=O)c1cc2nc(F)ccc2[nH]1)[C@@H]1COCc2[nH]c(=O)c3cc(F)c(F)cc3c21` [Compound 232, (S)-N-(8,9-Difluoro-6-oxo-1,4,5,6-tetrahydro-2H-pyrano[3,4-c]isoquinolin-1-yl)-5-fluoro-N-methyl-1H-pyrrolo[3,2-b]pyridine-2-carboxamide] to `CN(C(=O)c1ccc2ncsc2c1)[C@@H]1COCc2[nH]c(=O)c3cc(F)c(F)cc3c21` [Compound 428, (S)-N-(8,9-Difluoro-6-oxo-1,4,5,6-tetrahydro-2H-pyrano[3,4-c]isoquinolin-1-yl)-N-methylbenzo[d]thiazole-6-carboxamide], the EC50 rises from 70 nM to 340 nM (4.9-fold). The first is the more potent here.

In the case of `CN(Cc1ccc(Br)c(F)c1)[C@@H]1COCc2[nH]c(=O)c3cc(F)c(F)cc3c21` [Compound 486, (S)-1-((4-bromo-3-fluorobenzyl)(methyl)amino)-8,9-difluoro-1,5-dihydro-2H-pyrano[3,4-c]isoquinolin-6(4H)-one], the EC50 is reported as 8280 nM.
